Results reported in US10736883B2, “Triazole furan compounds as agonists of the APJ receptor” (AMGEN INC., priority 2016, dated 2020).
pEC50: −log10 of the molar value.

These compounds were tested against APJ receptor (Homo sapiens (Human), UniProt P35414) (assay: [35S]GTPγS binding assay on membranes from CHO cells stably expressing human APJ receptor). Details: membranes of CHO cells stably expressing human APJ receptor, means of several independent experiments, read-out: Activity hAPJ SPA EC50 IP.
Sequence of APJ receptor (P35414 whole entry): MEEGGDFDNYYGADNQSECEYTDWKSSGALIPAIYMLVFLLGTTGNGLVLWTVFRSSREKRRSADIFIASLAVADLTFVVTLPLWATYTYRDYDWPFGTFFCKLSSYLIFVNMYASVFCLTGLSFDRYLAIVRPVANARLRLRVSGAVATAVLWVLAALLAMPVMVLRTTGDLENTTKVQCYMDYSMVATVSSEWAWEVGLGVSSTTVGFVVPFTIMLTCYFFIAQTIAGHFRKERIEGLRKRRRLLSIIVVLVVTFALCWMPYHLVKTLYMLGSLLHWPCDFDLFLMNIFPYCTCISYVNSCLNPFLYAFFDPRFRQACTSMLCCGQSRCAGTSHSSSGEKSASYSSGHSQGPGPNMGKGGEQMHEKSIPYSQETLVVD
Type: biochemical
Method: The human APJ receptor was cloned by polymerase chain reaction and the gene encoding the receptor was subcloned in pFLAG-CMV™-3 expression vector (Sigma, Saint Louis, Mo. USA) in-house at Amgen. A GTPγS binding assay was performed on membranes prepared from CHO cells stably expressing human APJ receptor. The optimum experimental conditions for the concentrations of GDP, MgCl2, and NaCl in the assay buffer were initially determined. The assay was performed in assay buffer [20 mM HEPES, pH 7.5, 5 mM MgCl2, and 0.1% (w/v) BSA with 200 mM NaCl, 3 μM GDP] and membranes expressing human APJ receptor/well along with WGA PS beads. The reaction was initiated by addition of 0.2 nM [^35S]GTPγS (Perkin Elmer Life and Analytical Sciences, Waltham USA) in the absence or presence of various ligands and incubated at RT for 90 min. Nonspecific binding was determined in the presence of 100 μM GTPγS and was always less than 0.2% of total binding. All the results presented are means of several independent experiments and analyzed by non-linear regression methods using commercially available program Prism (GraphPad, San Diego, Calif.) to obtain EC50 detailed in Table 26.
Work on `COc1cccc(OC)c1-n1c(NS(=O)(=O)[C@@H](C)Cc2ncc(Cl)cc2NC(C)=O)nnc1-c1ccco1` (racemic) [Example 13.0, N-(5-chloro-2-((2S)-2-((4-(2,6-dimethoxyphenyl)-5-(2-furanyl)-4H-1,2,4-triazol-3-yl)sulfamoyl)propyl)-3-pyridinyl)acetamide and N-(5-chloro-2-((2R)-2-((4-(2,6-dimethoxyphenyl)-5-(2-furanyl)-4H-1,2,4-triazol-3-yl)sulfamoyl)propyl)-3-pyridinyl)acetamide] yielded a pEC50 of 9.72. Work on `COc1cccc(OC)c1-n1c(NS(=O)(=O)[C@@H](CCO)[C@H](C)c2ncc(C)cn2)nnc1-c1ccc(C)o1` (racemic) [Example 77.0] yielded a pEC50 of 9.11. `COc1cccc(OC)c1-n1c(NS(=O)(=O)[C@H]2CCCN(c3ncc(F)cn3)C2)nnc1-c1ccco1` [Example 206.0, (3S)—N-(4-(2,6-Dimethoxyphenyl)-5-(2-furanyl)-4H-1,2,4-triazol-3-yl)-1-(5-fluoro-2-pyrimidinyl)-3-piperidinesulfonamide] was tested, and the pEC50 was 8.32. `COc1cccc(OC)c1-n1c(NS(=O)(=O)C[C@@](C)(F)c2ncc(C#N)cn2)nnc1-c1ccc(C)o1` (single isomer, unassigned) [Example 231.0, (2S)-2-(5-Cyano-2-pyrimidinyl)-N-(4-(2,6-dimethoxyphenyl)-5-(5-methyl-2-furanyl)-4H-1,2,4-triazol-3-yl)-2-fluoro-1-propanesulfonamide or (2R)-2-(5-cyano-2-pyrimidinyl)-N-(4-(2,6-dimethoxyphenyl)-5-(5-methyl-2-furanyl)-4H-1,2,4-triazol-3-yl)-2-fluoro-1-propanesulfonamide] was tested, and the pEC50 was 9.36. `COc1cccc(OC)c1-n1c(NS(=O)(=O)[C@H](C)[C@@H](OC)c2cn3ccccc3n2)nnc1-c1ccc(C)o1` (single isomer, unassigned) [Example 287.0, (1R,2S)—N-(4-(2,6-Dimethoxyphenyl)-5-(5-methyl-2-furanyl)-4H-1,2,4-triazol-3-yl)-1-imidazo[1,2-a]pyridin-2-yl-1-methoxy-2-propanesulfonamide or (1S,2R)—N-(4-(2,6-dimethoxyphenyl)-5-(5-methyl-2-furanyl)-4H-1,2,4-triazol-3-yl)-1-imidazo[1,2-a]pyridin-2-yl-1-methoxy-2-propanesulfonamide] was tested, and the pEC50 was 8.39. `COc1cccc(OC)c1-n1c(NS(=O)(=O)CCc2ncc(C)cn2)nnc1-c1ccco1` [Example 39.0, N-(4-(2,6-dimethoxyphenyl)-5-(2-furanyl)-4H-1,2,4-triazol-3-yl)-2-(5-methyl-2-pyrimidinyl)ethanesulfonamide] gave a pEC50 of 8.18. `COc1cccc(OC)c1-n1c(NS(=O)(=O)[C@@H](C)[C@@H](O)c2ccc(C)cn2)nnc1-c1ccc(C)o1` (single isomer, unassigned) [Example 63.0] was tested, and the pEC50 was 9.62. For `COc1cccc(OC)c1-n1c(NS(=O)(=O)CCc2ncc(Cl)cc2CCN2CCC2)nnc1-c1ccco1` [Example 235.0, 2-(3-(2-(1-Azetidinyl)ethyl)-5-chloro-2-pyridinyl)-N-(4-(2,6-dimethoxyphenyl)-5-(2-furanyl)-4H-1,2,4-triazol-3-yl)ethanesulfonamide], the pEC50 was 9.25. `COc1cccc(OC)c1-n1c(NS(=O)(=O)C[C@H](O)c2ccc(C#N)cn2)nnc1-c1ccc(C)o1` (single isomer, unassigned) [Example 66.0, (2R)-2-(5-Cyano-2-pyridinyl)-N-(4-(2,6-dimethoxyphenyl)-5-(5-methyl-2-furanyl)-4H-1,2,4-triazol-3-yl)-2-hydroxyethanesulfonamide or (2S)-2-(5-cyano-2-pyridinyl)-N-(4-(2,6-dimethoxyphenyl)-5-(5-methyl-2-furanyl)-4H-1,2,4-triazol-3-yl)-2-hydroxyethanesulfonamide] showed a pEC50 of 9.49. `COc1cccc(OC)c1-n1c(NS(=O)(=O)[C@H](C)[C@@H](O)c2cscn2)nnc1-c1ccc(C)o1` (single isomer, unassigned) [Example 307.0, (1S,2R)—N-(4-(2,6-Dimethoxyphenyl)-5-(5-methyl-2-furanyl)-4H-1,2,4-triazol-3-yl)-1-hydroxy-1-(1,3-thiazol-4-yl)-2-propanesulfonamide or (1R,2S)—N-(4-(2,6-dimethoxyphenyl)-5-(5-methyl-2-furanyl)-4H-1,2,4-triazol-3-yl)-1-hydroxy-1-(1,3-thiazol-4-yl)-2-propanesulfonamide] was tested, and the pEC50 was 7.55. `COc1cccc(OC)c1-n1c(NS(=O)(=O)[C@@H](C)CN2C(=O)CCC[C@]2(C)C#N)nnc1-c1ccco1` (single isomer, unassigned) [Example 341.0] was tested, and the pEC50 was 7.09. For `COc1cccc(OC)c1-n1c(NS(=O)(=O)[C@H](C)Cc2cnc(C)cn2)nnc1-c1ccco1` (single isomer, unassigned) [Example 32.0, (2R)—N-(4-(2,6-dimethoxyphenyl)-5-(2-furanyl)-4H-1,2,4-triazol-3-yl)-1-(5-methyl-2-pyrazinyl)-2-propanesulfonamide or (2S)—N-(4-(2,6-dimethoxyphenyl)-5-(2-furanyl)-4H-1,2,4-triazol-3-yl)-1-(5-methyl-2-pyrazinyl)-2-propanesulfonamide], the pEC50 was 8.64. With `CO[C@H](c1ncc(Cl)cn1)[C@H](C)S(=O)(=O)Nc1nnc(-c2ccc(C)o2)n1[C@H]1CCCOC1` [Example 390.0, (1R,2S)-1-(5-chloropyrimidin-2-yl)-1-methoxy-N-(5-(5-methylfuran-2-yl)-4-((S)-tetrahydro-2H-pyran-3-yl)-4H-1,2,4-triazol-3-yl)propane-2-sulfonamide] the pEC50 was 7.89. For `COc1cccc(OC)c1-n1c(NS(=O)(=O)C[C@@H](C)c2ncc(F)cn2)nnc1-c1ccc(C)o1` (single isomer, unassigned) [Example 123.0, (S)—N-(4-(2,6-Dimethoxyphenyl)-5-(5-methylfuran-2-yl)-4H-1,2,4-triazol-3-yl)-2-(5-fluoropyrimidin-2-yl)propane-1-sulfonamide or (R)—N-(4-(2,6-dimethoxyphenyl)-5-(5-methylfuran-2-yl)-4H-1,2,4-triazol-3-yl)-2-(5-fluoropyrimidin-2-yl)propane-1-sulfonamide], the pEC50 was 9.62. With `COc1cccc(OC)c1-n1c(NS(=O)(=O)[C@H]2C[C@@H](O)CN(c3ncc(F)cn3)C2)nnc1-c1ccco1` (single isomer, unassigned) [Example 167.0, (3S,5R)—N-(4-(2,6-Dimethoxyphenyl)-5-(2-furanyl)-4H-1,2,4-triazol-3-yl)-1-(5-fluoro-2-pyrimidinyl)-5-hydroxy-3-piperidinesulfonamide or (3R,5S)—N-(4-(2,6-dimethoxyphenyl)-5-(2-furanyl)-4H-1,2,4-triazol-3-yl)-1-(5-fluoro-2-pyrimidinyl)-5-hydroxy-3-piperidinesulfonamide] the pEC50 was 9.03. For `COc1cccc(OC)c1-n1c(NS(=O)(=O)CCc2ncc(Cl)cc2-c2cccnc2)nnc1-c1ccco1` [Example 221.0, 2-(5-Chloro-3,3′-bipyridin-2-yl)-N-(4-(2,6-dimethoxyphenyl)-5-(2-furanyl)-4H-1,2,4-triazol-3-yl)ethanesulfonamide], the pEC50 was 9.52. `COCC[C@@H](Cc1ncc(C)cn1)S(=O)(=O)Nc1nnc(-c2ccc(C)o2)n1-c1c(OC)cccc1OC` (single isomer, unassigned) [Example 71.0, (2R)—N-(4-(2,6-Dimethoxyphenyl)-5-(5-methyl-2-furanyl)-4H-1,2,4-triazol-3-yl)-4-methoxy-1-(5-methyl-2-pyrimidinyl)-2-butanesulfonamide or (2S)—N-(4-(2,6-dimethoxyphenyl)-5-(5-methyl-2-furanyl)-4H-1,2,4-triazol-3-yl)-4-methoxy-1-(5-methyl-2-pyrimidinyl)-2-butanesulfonamide] showed a pEC50 of 9.33. `COc1cccc(OC)c1-n1c(NS(=O)(=O)[C@H](C)[C@H](O)c2cscn2)nnc1-c1ccc(C)o1` (single isomer, unassigned) [Example 298.0, (1R,2R)—N-(4-(2,6-Dimethoxyphenyl)-5-(5-methyl-2-furanyl)-4H-1,2,4-triazol-3-yl)-1-hydroxy-1-(1,3-thiazol-4-yl)-2-propanesulfonamide or (1S,2S)—N-(4-(2,6-dimethoxyphenyl)-5-(5-methyl-2-furanyl)-4H-1,2,4-triazol-3-yl)-1-hydroxy-1-(1,3-thiazol-4-yl)-2-propanesulfonamide] was tested, and the pEC50 was 7.96. For `COC[C@H]1CCCC(=O)N1C[C@@H](C)S(=O)(=O)Nc1nnc(-c2ccc(C)o2)n1-c1c(OC)cccc1OC` (single isomer, unassigned) [Example 150.0], the pEC50 was 9.66. With `COc1cccc(OC)c1-n1c(NS(=O)(=O)[C@@H](C)[C@H](O)c2cccc3ccnn23)nnc1-c1ccc(C)o1` (single isomer, unassigned) [Example 296.0, (1R,2S)—N-(4-(2,6-Dimethoxyphenyl)-5-(5-methyl-2-furanyl)-4H-1,2,4-triazol-3-yl)-1-hydroxy-1-pyrazolo[1,5-a]pyridin-7-yl-2-propanesulfonamide or (1S,2R)—N-(4-(2,6-dimethoxyphenyl)-5-(5-methyl-2-furanyl)-4H-1,2,4-triazol-3-yl)-1-hydroxy-1-pyrazolo[1,5-a]pyridin-7-yl-2-propanesulfonamide] the pEC50 was 8.17.
